Assay results taken from patent publication US20140323581A1, “TRANSCRIPTOME WIRING ANALYSIS IN PARKINSON'S DISEASE AND USES THEREOF” (THE TRUSTEES OF COLUMBIA UNIVERSITY IN THE CITY OF NEW YORK, priority 2011, published 2014).
Entries after “also recorded” stand apart in the source; their conditions may differ.

How the values were obtained:
human aSyn 3′UTR = assay: Firefly luciferase-aSyn 3′UTR reporter assay in SH-SY5Y cells; format: cell-based; conditions: for luciferase expression, Firefly/Renilla ratio, 1.1 kb human aSyn 3′UTR vector: 100 μM for 24 h
Procedure: The human SH-SY5Y neuroblastoma cell line (ATCC) was cultured following the distributor's instructions. Cells were plated at a density of 4×10^5 cells per well (in 48-well plates) in wells coated with 0.1% gelatin (Specialty Media, Millipore) 24 hours prior to transfection. Transfections were performed with Lipofectamine 2000 reagent (Invitrogen) following the manufacturer's instructions. The human HEK-293T cell line (ATCC) was cultured in DMEM (Invitrogen) supplemented with 10% FBS (Invitrogen). Cells were plated at a density of 8×10^3 cells per well (96-well plates). Mir-34b-3p precursor, specific Anti-miR Mir-34b-3p inhibitor, Anti-miR Negative Control #1, and Pre-miR Negative Control #1 were purchased from Ambion. Cells were co-transfected with luciferase reporter plasmids and a small RNA or inhibitor (as indicated) using siPort NeoFx reagent (Ambion) following manufacturer's protocol. Luciferase and Renilla activities were measured 24 h or 48 h after transfection using Dual-Glo luciferase assay system (Promega).

aSynL:total ratio [1] = assay: aSynL:total ratio by RT-qPCR in rat primary cortical cultures; format: cell-based; conditions: for aSynL:total ratio: rat primary cortical neurons, RT-qPCR, dopamine, picrotoxin, muscimol, NMDA 100 μM, kainic acid 50 μM, vs vehicle; for dopamine-mediated potentiation of the aSynL:total ratio: nomifensine 100 μM with dopamine 100 μM for 24 h
Procedure: (§1) Cultures of rodent neurons were prepared as described in ^53. Cells were maintained in vitro for 3-5 days before drug treatments or transfection using Lipofectamine 2000 (Iinvitrogen) following manufacturer's instructions.
RT-qPCR analyses were performed as described ^60. The human aSynL:Total mRNA ratio was quantified in terms of AACt ^60 using primer pair Lh for the human long form (HaSynLfw [[…]] SEQ ID NO: 13, and HaSynLry [[…]]) SEQ ID NO: 14 and primer pair Th for human total (HaSynTfw [[…]] SEQ ID NO: 15 and HaSynTrv [[…]] SEQ ID NO: 16). For analysis of either mouse or rat, primer pairs mrL (RaSynLfw [[…]] SEQ ID NO: 17 and RaSynLrv [[…]] SEQ ID NO: 18) and mrT (RaSynTfw [[…]] SEQ ID NO: 19, RaSynTry [[…]] SEQ ID NO: 20) were used.

aSynL/total ratio = aSynL/total ratio in SK-N-MC cells treated with chronic low-dose rotenone (reanalysis of GEO GSE4773); format: cell-based, human; conditions: one or two weeks vs vehicle
aSyn protein [2] = assay: aSyn protein by ELISA in mitochondrial and membrane fractions of SH-SY5Y cells; format: cell-based, human; conditions: 100 μM for 48 h
Procedure: (§2) Mitochondria were purified using Qproteome Mitochondria Isolation Kit (Qiagen) and membrane fractions were isolated using Subcellular Protein Fractionation Kit (Pierce) following manufacturers' instructions. Human aSyn protein levels were determined using the aSyn Human ELISA kit (Invitrogen). Absorbance was read on a VersaMax ELISA Microplate Reader (Molecular Devices, Inc) at 450 nm. The amount of human aSyn was normalized to total cellular protein as determined with the DC Protein Assay Reagent kit (Bio-Rad). Mitochondrial preparations were validated by Western blot analysis for Tom20 and synaptophysin (see FIG. 12d).

aSynL:total ratio [3] = assay: In situ hybridization for aSyn CDS and long 3′UTR in primary cortical neuron cultures from aSyn PAC transgenic mice; format: cell-based; conditions: 100 μM for 24 h, DIV 4 PAC mouse cortical neurons
Procedure: as §1
In situ hybridization were performed using QuantiGene® ViewRNA ISH Cell Assay (Panomics) following manufacturer's instructions, with QG ViewRNA TYPE 8 Probe Sets (Panomics) designed to target either human aSyn CDS sequences (bases 264-634 from NM_000345.3; Panomics) or to target human aSynL 3′UTR sequences (bases 1180-1760 from NM_000345.3).

aSyn protein [4] = assay: Colocalization of aSyn and Mitotracker in primary cortical neuron cultures from PAC transgenic mice; format: cell-based; conditions: primary mouse cortical neurons, 100 μM for 24 h
Procedure: as §1
Immunostainings were done as previously described ^59 with Rabbit anti-aSyn (Santa Cruz, 1:200) or Mouse anti-Synaptophysin (Millipore, 1:100) as primary antibodies, and Alexa 555 goat anti-rabbit IgG or Alexa 633 goat anti-mouse IgG (Invitrogen) secondary antibodies. MitoTracker-Orange (Invitrogen, 1:10000) was added into media for 15-20 min in living cell culture. Collocalization analyses were done in R using EBImage package; using Pearson's correlation coefficient.

aSyn protein [5] = assay: Total endogenous aSyn protein by ELISA in SH-SY5Y cells; format: cell-based, human; conditions: 100 μM for 48 h
Procedure: as §2

NCc1cc(=O)[nH]o1 [muscimol]
luciferase expression, Firefly/Renilla ratio, 1.1 kb human aSyn 3′UTR vector (human aSyn 3′UTR; SH-SY5Y): decreased | aSynL:total ratio (aSynL:total ratio [1]): alter

CN1CCCC1c1cccnc1 (stereo not shown) [nicotine]
expression of an aSynL-3′UTR bearing reporter gene (Firefly/Renilla) (human aSyn 3′UTR; nicotine 100 μM, with or without dopamine 100 μM, 24 h): decreases

CN1Cc2c(N)cccc2C(c2ccccc2)C1 (stereo not shown) [nomifensine]
dopamine-increased luciferase accumulation, luciferase-aSyn 3′UTR vector (human aSyn 3′UTR; SH-SY5Y, dopamine 100 μM with nomifensine 100 μM, 24 h): suppressed | dopamine-mediated potentiation of the aSynL:total ratio (aSynL:total ratio [1]): suppressed sensitivity | dopamine-mediated potentiation of the aSynL:total ratio (aSynL:total ratio [1]; listed as Nomifensine): suppresses

C=C(C)[C@H]1Cc2c(ccc3c2O[C@@H]2COc4cc(OC)c(OC)cc4[C@@H]2C3=O)O1 [rotenone]
aSynL/total ratio (Affymetrix probesets 204467_s_at and 211546_x_at) (aSynL/total ratio): predictably modify; also recorded: increased | aSynL/total ratio (Affymetrix probesets 204467_s_at and 211546_x_at) (aSynL/total ratio; listed as Rotenone): Mitochondrial toxin increases aSynL: total ratio

picrotoxin
aSyn content within total cell membrane fraction relative to whole cell lysate (ELISA) (aSyn protein [2]): decreased; also recorded: reduction | aSyn protein content in mitochondrial preparations relative to whole cell aSyn content (ELISA) (aSyn protein [2]): increased proportion; also recorded: preferentially increased | luciferase expression, Firefly/Renilla ratio, 1.1 kb human aSyn 3′UTR vector (human aSyn 3′UTR; SH-SY5Y): increased | luciferase expression, Firefly/Renilla ratio, short aSyn 3′UTR vector (human aSyn 3′UTR; SH-SY5Y, 100 μM for 24 hrs): do not influence | aSynL:total ratio (ratio of in situ hybridization signals) (aSynL:total ratio [3]): increase | fraction of aSyn protein that colocalized with mitochondria (Mitotracker) (aSyn protein [4]): significantly increased | aSynL:total ratio (aSynL:total ratio [1]): significantly increased; also recorded: alter | endogenous aSyn protein levels (ELISA, normalized to total protein) (aSyn protein [5]): significantly increased
